In patent US8957219B2, “Acetic acid amide derivative having inhibitory activity on endothelial lipase” (Shionogi & Co., Ltd., priority 2008, dated 2015):

Biological target: human endothelial lipase (EL) (Homo sapiens (Human), UniProt Q9Y5X9)
Test: Human endothelial lipase (EL) inhibitory activity using human HDL
Assay type: biochemical
Conditions: human HDL 2 mg/ml, 4-hour reaction at 37° C., NEFA readout
Protocol: Evaluation Method of Human Endothelial Lipase (EL) Inhibitory Activity Using Human High-Density Lipoprotein (HDL)
After the present compound dissolved in DMSO was added to become 0.5% DMSO to the reaction buffer consisting of 20 mM tris hydrochloric acid (pH7.4), bovine serum albumin (0.5%), calcium chloride (4 mM), sodium chloride (150 mM) and human HDL (2 mg/ml), the EL enzyme was added (total volume was 20 μl).
After 4-hour reaction at 37° C., non-esterified fatty acid (NEFA) generated from HDL by EL was measured with a commercially available assay kit and the amount of NEFA was used as an index of enzyme activity.

human endothelial lipase (EL), sequence (Q9Y5X9 21-500): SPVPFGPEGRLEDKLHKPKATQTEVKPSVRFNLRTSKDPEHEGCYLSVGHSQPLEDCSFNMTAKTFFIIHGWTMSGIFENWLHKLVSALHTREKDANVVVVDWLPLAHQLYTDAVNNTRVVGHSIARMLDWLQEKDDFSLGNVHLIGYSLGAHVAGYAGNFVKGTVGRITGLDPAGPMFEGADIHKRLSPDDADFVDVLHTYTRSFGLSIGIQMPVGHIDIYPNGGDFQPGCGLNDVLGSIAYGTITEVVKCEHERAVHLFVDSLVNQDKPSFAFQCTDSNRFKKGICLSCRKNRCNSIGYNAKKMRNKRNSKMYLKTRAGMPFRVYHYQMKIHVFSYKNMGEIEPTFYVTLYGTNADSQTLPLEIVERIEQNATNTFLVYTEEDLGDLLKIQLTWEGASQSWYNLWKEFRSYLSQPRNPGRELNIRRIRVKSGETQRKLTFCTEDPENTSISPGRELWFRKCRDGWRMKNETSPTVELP

| SMILES | IC50 [nM] |
| --- | --- |
| O=C(Cc1nc2ccc(-c3ccccc3)cc2s1)NCc1cccc(C(=O)O)c1 [II-1-1] | 230 |
| NS(=O)(=O)c1cccc(CNC(=O)Cc2nc3ccc(-c4ccccc4)cc3s2)c1 [II-1-11] | 560 |
| CN(C)C(=O)c1cccc(CNC(=O)Cc2nc3ccc(-c4ccccc4)cc3s2)c1 [II-1-17] | 1300 |
| COCC(O)CNC(=O)Cc1nc2ccc(-c3ccccc3)cc2s1 (stereo not drawn) [II-1-190] | 2100 |
| O=C(Cc1nc2cc(-c3cccc(C(F)(F)F)c3)ccc2s1)NCc1cccc(C(=O)O)c1 [II-1-202] | 290 |
| O=C(Cc1nc2ccc(-c3ccccc3)cc2s1)NCc1nc(C(=O)O)cs1 [II-1-246] | 280 |
| N#CCNC(=O)CNC(=O)Cc1nc2ccc(-c3ccccc3)cc2s1 [II-2-1] | 110 |
| N#CC1(NC(=O)CNC(=O)Cc2nc3ccc(-c4ccccc4)cc3s2)CC1 [II-2-67] | 29 |
| CC(O)CNC(=O)CNC(=O)Cc1nc2ccc(-c3ccccc3)cc2s1 (stereo not drawn) [II-2-131] | 92 |
| COc1cc2nc(CC(=O)NCC(=O)NCC#N)sc2cc1-c1ccccc1 [II-2-144] | 29 |
| C#CCNC(=O)CNC(=O)Cc1nc2ccc(-c3ccccc3)cc2s1 [II-2-211] | 32 |
| N#CCNC(=O)CNC(=O)Cc1nc2cc(-c3ccc(OC(F)(F)F)cc3)ccc2s1 [II-2-291] | 56 |
